Publication PMC6017655, “In Silico and in Vitro-Guided Identification of Inhibitors of Alkylquinolone-Dependent Quorum Sensing in Pseudomonas aeruginosa” (Molecules : A Journal of Synthetic Chemistry and Natural …, 2018)

Columns and labels:
[1] = Plasma stability, human; type: in vitro ADME; conditions: 37 °C; for half-life at 1 µM: human, plasma, up to 2 h, read-out: Plasma Stability Human t 1/2
Method: Dilutions of a 10 mM test compound DMSO stock solution were prepared so that the final DMSO concentration was 1% v/v and the final test compound concentration tested was 1 µM. Following the addition of the test compound to plasma, the samples were pre-incubated for 10 min prior to the start of the incubation by the addition of the test compound. The test compound was incubated (n = 2; 1 µM final concentration) at 37 °C with plasma for up to 2 h. Aliquots were sampled at several time points and mixed with acetonitrile (containing internal standard) to terminate the reaction and precipitate the proteins. All the samples were mixed, centrifuged and the supernatants analysed by UPLC-MSMS. Parent disappearance and half-life (t 1/2) values were determined from the slope of the parent depletion curve. Control compounds (imidapril, enalapril, tenofovir and/or propantheline), were respectively included.

[2] = Hepatic microsomal stability, human; type: in vitro ADME; conditions: liver microsomes, pH 7.4, 0.5 mg/mL protein, NADPH, 37 °C; for half-life at 1 µM: read-out: Microsomal Stability Human t1/2
Method: Dilutions of a 1 mM test compound DMSO stock solution were prepared in buffer (typically 0.01 M phosphate buffered saline (pH 7.4) so that the final DMSO concentration was 0.1% v/v and the final test compound concentration tested was 1 µM. Following addition of protein (0.5 mg/mL final) and NADPH, the samples were pre-incubated for 10 min prior to the start of the incubation by the addition of test compound. The test compounds were then incubated (n = 2; 1 µM final concentration) at 37 °C with tissue microsomes. Aliquots were sampled at several time points and mixed with acetonitrile (containing internal standard) to terminate the reaction and precipitate the proteins. All the samples were mixed, centrifuged and the supernatants analysed by UPLC-MS/MS. The intrinsic clearance (Clint) and half-life (t 1/2) values were determined from the slope of the parent depletion curve. Control compounds for low, moderate and high intrinsic clearance, respectively, for both human and rat microsomes, were included.

[3] = system: pyocyanin production by PAO1-L; experiment: Pyocyanin production assay, PAO1-L; type: cell-based, Pseudomonas aeruginosa; conditions: 3x IC50, 16 h
Method: (§1) Pyocyanin is a blue redox-active toxin, produced by P. aeruginosa and strongly-controlled by PqsR via the regulation of pqsE expression. Pyocyanin is essential for the pathogenicity of P. aeruginosa in lung infections. The effect of the PqsR inhibitors on pyocyanin production by PA14 and PAO1-L strains, when grown in the presence or absence of the inhibitors, was investigated (Figure 4).
(§2) The experiment was performed following a published protocol with minor modifications. P. aeruginosa strains were cultured into 5 mL fresh medium overnight. […] Cells were centrifuged at 10,000 RCF for 10 min (Allegra 64R centrifuge, Beckman Coulter, High Wycombe, UK) and the supernatant was transferred to 15 mL falcon tubes with a HSW 10 mL Soft-Ject Syringe and a […] Sartorius syringe-driven filter (Fisher Brand, Loughborough, UK). Pyocyanin pigment was extracted into chloroform by mixing 7.5 mL of supernatant with 4.5 mL of chloroform. Pyocyanin was further extracted into 1.5 mL of 0.2 M HCL, which gave a pink/red solution, and the absorbance was measured at 520 nm.

[4] = system: pyocyanin production by PA14; experiment: Pyocyanin production assay, PA14; type: cell-based, Pseudomonas aeruginosa; conditions: 3x IC50, 16 h
Method: as §1, §2

[5] = system: AQ production in PAO1-L; experiment: Alkylquinolone (HHQ, PQS, HQNO) production by LC-MS/MS, PAO1-L; type: cell-based, Pseudomonas aeruginosa; conditions: 3x IC50, 16 h, culture supernatant
Method: HQNO, can protect Staphylococcus aureus from vancomycin [31] and contributes to the environmental competitiveness of P. aeruginosa, through its activity as a potent inhibitor of the cytochrome bc1 complex. […] LC-MS/MS was used to quantify the major AQs HHQ, PQS and HQNO after incubation of the P. aeruginosa strains with the hit compounds, for 16 h. The assay was performed using both PAO1-L and PA14 strains which were treated with PqsR antagonists at concentrations three-fold higher than their IC50 values. The results obtained depended on the inhibitor and strain tested (Figure 5).
For each test sample, 100 µL of sterile filtered supernatant (the same preparation as for pyocyanin) was spiked with 10 µL of an internal standard solution (10 µM d4-PQS in MeOH), and diluted with water, to a total volume of 500 µL. Samples were then extracted three times with an 0.5 mL aliquot of ethyl acetate, vortex mixing the aqueous/organic mix for 2 min, then removing the organic phase once the layers had successfully partitioned. For each sample, the combined organic extracts were dried under vacuum and re-dissolved in 100 µL MeOH prior to analysis. For the LC-MS/MS analysis of supernatant extracts, the chromatography was achieved using a Shimadzu series 10AD VP LC system (Columbia, MD, USA). The LC column, maintained at 40 °C, was a Phenomenex Gemini C18 (3.0 µm, 100 × 3.0 mm) (Macclesfield, Cheshire, UK) with an appropriate guard column. Mobile phase A was 0.1% (v/v) formic acid in water containing 2 mM 2-picolinic acid, and mobile phase B 0.1% (v/v) formic acid in methanol. The flow rate throughout the chromatographic separation was 450 µL/min. After an injection of a 2 µL/sample, a binary gradient, beginning initially at 30% B, increased linearly to 99% B over 5 min. The composition remained at 99% B for 3 min, decreased to 30% B over 1 min, and stayed at this composition for 4 min, to allow for column equilibration. […] Where chromatographic peaks for HHQ, HQNO and PQS were detected, a peak area was determined, and analyte peak area/internal standard peak area calculated.

[6] = strain not singled out in the sentence

Row | SMILES | half-life at 1 µM [1] [min] | microsomal CLint at 1 µM [2] [µL/min/mg] | half-life at 1 µM [2] [min] | Effect on pyocyanin production (in words), PAO1-L [3] | Reduction of pyocyanin production, PAO1-L [3, 6] | Effect on pyocyanin production (in words), PA14 [4] | Reduction of pyocyanin production, PA14 [4, 6] | Inhibition of AQ production (in words), PAO1-L [5] | Plasma stability (in words), human plasma ([1]; 1 µM)
1 | CC(=O)N1N=C(c2ccccc2)CC1c1cccc(Nc2ccnc3cc(Cl)ccc23)c1 (stereo not drawn) [IIa] | 73.8 | 73 | 19 | weakest effect | over 25% | weakest effect | over 25% | moderate effect | –
2 | O=CN1N=C(c2ccccc2)CC1c1cccc(Nc2ccnc3cc(Cl)ccc23)c1 (stereo not drawn) [Ia] | 132 | 60.3 | 23.3 | strongest effect | – | strongest effect | – | strongly-inhibited AQ production | greatest plasma stability
